For assay [1], the target named is T1, human LXRβ (Homo sapiens, UniProt P55055).
T1 construct: biotin (biotinylated); made in house; host or cells: E. coli (crude extract)
T1 sequence (P55055 1-460): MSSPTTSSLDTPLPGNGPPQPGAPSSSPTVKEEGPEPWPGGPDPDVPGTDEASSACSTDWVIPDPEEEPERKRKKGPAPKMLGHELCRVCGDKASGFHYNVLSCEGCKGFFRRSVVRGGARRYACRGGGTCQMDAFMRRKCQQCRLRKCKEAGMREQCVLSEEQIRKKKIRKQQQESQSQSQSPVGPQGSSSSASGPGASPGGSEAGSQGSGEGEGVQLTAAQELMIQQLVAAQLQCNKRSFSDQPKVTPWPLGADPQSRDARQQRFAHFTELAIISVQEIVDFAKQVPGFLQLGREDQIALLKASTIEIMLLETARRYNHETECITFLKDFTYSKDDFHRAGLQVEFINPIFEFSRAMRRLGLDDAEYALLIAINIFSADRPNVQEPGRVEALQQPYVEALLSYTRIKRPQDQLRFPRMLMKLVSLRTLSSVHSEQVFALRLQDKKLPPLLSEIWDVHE
The assay is described as follows: Ligand-binding test procedure for human LXRβ (3H T0901317 tracer, flash plates). As for the experimental part:
Receptor source: E. coli extracted from cells expressing biotinylated hLXRβ. Extract was made in a similar buffer as above, but with 50 mM TRIS.
Washed streptavidin and coated flash plates with wash buffer. Diluted receptor extract to give Bmax ˜4000 cpm and add to the wells. Wrapped the plates in aluminum foil and stored them at +4° C. overnight.
(§1) Made a dilution series in DMSO of the test ligands. Made a 5 nM solution of the radioactive tracer in buffer. Mixed 250 μl diluted tracer with 5 μl of the test ligand from each concentration of the dilution series. Washed the receptor-coated flash plates. Added 200 μl per well of the ligand/radiolabel mixture to the receptor-coated flash plates. Wrapped the plates in aluminum foil and incubate at +4° C. over night.
Aspirated wells, and washed the flashed plates. Sealed the plate. Measured the remaining radioactivity in the plate.

Assay [2] concerns the target T2, human LXRα (Homo sapiens, UniProt Q13133).
T2 construct: biotin (biotinylated); made in house; host or cells: E. coli (crude extract)
T2 sequence (Q13133 1-447): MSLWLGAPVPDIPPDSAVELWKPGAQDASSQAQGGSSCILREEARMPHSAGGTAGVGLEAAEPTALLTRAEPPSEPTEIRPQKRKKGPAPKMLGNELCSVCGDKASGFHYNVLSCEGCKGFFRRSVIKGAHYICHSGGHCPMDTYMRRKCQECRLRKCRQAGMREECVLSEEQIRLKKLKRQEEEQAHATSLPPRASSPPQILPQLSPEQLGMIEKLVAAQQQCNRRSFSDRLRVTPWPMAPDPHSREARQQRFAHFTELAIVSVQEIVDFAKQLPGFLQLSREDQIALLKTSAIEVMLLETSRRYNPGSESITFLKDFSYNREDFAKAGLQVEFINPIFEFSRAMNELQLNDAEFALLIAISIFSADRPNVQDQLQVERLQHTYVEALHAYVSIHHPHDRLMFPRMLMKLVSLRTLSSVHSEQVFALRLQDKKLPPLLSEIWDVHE
The assay is described as follows: Ligand-binding test procedure for human LXRα (3H T0901317 tracer, flash plates). Particulars: biotinylated hLXRα, tracer 3H T0901317. As for the experimental part: Receptor source: E. coli extract from cells expressing biotinylated hLXRcc. Extract was made in a similar buffer as above, but with 50 mM TRIS.
Washed streptavidin and coated flash plates with wash buffer. Diluted receptor extract to give Bmax ˜4000 cpm and add to the wells. Wrapped the plates in aluminum foil and stored them at +4° C. over night.
as §1
Aspirated wells, and wash the flashed plates. Sealed the plate. Measured the remaining radioactivity in the plate.

Consider `Cc1nc2c(C(F)(F)F)cccc2n1-c1cccc(Oc2cccc(S(=O)(=O)CCC(C)(C)O)c2)c1` [Example 11, 2-methyl-4-[(3-{3-[2-methyl-4-(trifluoromethyl)-1H-benzimidazol-1-yl]phenoxy}-phenyl)sulfonyl]butan-2-ol], for which the IC50 (usually the midpoint of a concentration-inhibition curve) came to 290 nM in assay [1] and 7000 nM in assay [2].
As to `Cc1nc2c(C(F)(F)F)cccc2n1-c1cccc(Oc2ccccc2S(C)(=O)=O)c1` [Example 12, 2-methyl-1-{3-[2-(methylsulfonyl)phenoxy]phenyl}-4-(trifluoromethyl)-1H-benzimidazole], the IC50 in assay [1] and in assay [2] was > 1000 nM throughout.
Consider `Cc1nc2c(C(F)(F)F)cccc2n1-c1cccc(Oc2ccccc2S(=O)(=O)CCCO)c1` [Example 13, 3-[(2-{3-[2-methyl-4-(trifluoromethyl)-1H-benzimidazol-1-yl]phenoxy}phenyl)sulfonyl]propan-1-ol], for which the results for the IC50 in assay [1] and in assay [2] were 1900 nM and > 1000 nM, respectively.
For `Cc1nc2c(C(F)(F)F)cccc2n1-c1cccc(Oc2ccc(S(C)(=O)=O)cc2)c1` [Example 14, 2-methyl-1-{3-[4-(methylsulfonyl)phenoxy]phenyl}-4-(trifluoromethyl)-1H-benzimidazole] the same measures were 435 nM and 2950 nM.
Take `Cc1nc2c(C(F)(F)F)cccc2n1-c1cccc(Oc2ccc(S(=O)(=O)CCCO)cc2)c1` [Example 15, 3-[(4-{3-[2-methyl-4-(trifluoromethyl)-1H-benzimidazol-1-yl]phenoxy}phenyl)sulfonyl]propan-1-ol]: the concentration for half-maximal inhibition (IC50) is 945 nM in assay [1] and 4840 nM in assay [2].
Turning to `CCCS(=O)(=O)c1cccc(Oc2cccc(-n3c(C)nc4c(Cl)cccc43)c2)c1` [Example 43, 4-chloro-2-methyl-1-{3-[3-(propylsulfonyl)phenoxy]phenyl}-1H-benzimidazole], the IC50 came to 3.7 nM in assay [1] and 14 nM in assay [2].
In the case of `Cc1nc2c(Cl)cccc2n1-c1cccc(Oc2cc(F)cc(S(C)(=O)=O)c2)c1` [Example 44, 4-chloro-1-{3-[3-fluoro-5-(methylsulfonyl)phenoxy]phenyl}-2-methyl-1H-benzimidazole], the IC50 in assay [1] is 3.5 nM; in assay [2], 12 nM.
For `CCS(=O)(=O)c1cc(F)cc(Oc2cccc(-n3c(C)nc4c(Cl)cccc43)c2)c1` [Example 45, 4-chloro-1-{3-[3-(ethylsulfonyl)-5-fluorophenoxy]phenyl}-2-methyl-1H-benzimidazole] the same measures were 6.6 nM and 31 nM.
Turning to `Cc1nc2c(Cl)cccc2n1-c1cccc(Oc2cc(Cl)cc(S(C)(=O)=O)c2)c1` [Example 46, 4-chloro-1-{3-[3-chloro-5-(methylsulfonyl)phenoxy]phenyl}-2-methyl-1H-benzimidazole], the IC50 was 3.6 nM in assay [1] and 36 nM in assay [2].
As to `CCS(=O)(=O)c1ccc(Oc2cccc(-n3c(C)nc4c(Cl)cccc43)c2)cc1` [Example 49, 4-chloro-1-{3-[4-(ethylsulfonyl)phenoxy]phenyl}-2-methyl-1H-benzimidazole], the IC50 in assay [1] turned out to be 17 nM; in assay [2], 85 nM.
As for `Cc1nc2c(Cl)cccc2n1-c1cccc(Oc2ccccc2S(C)(=O)=O)c1` [Example 50, 4-chloro-2-methyl-1-{3-[2-(methylsulfonyl)phenoxy]phenyl}-1H-benzimidazole], the IC50 in assay [1] stood at 170 nM; in assay [2], 746 nM.
In the same order, the values of `Cc1nc2c(Cl)cccc2n1-c1cccc(Oc2cc(S(C)(=O)=O)ccc2Br)c1` [Example 51, 1-{3-[2-bromo-5-(methylsulfonyl)phenoxy]phenyl}-4-chloro-2-methyl-1H-benzimidazole] are 100 nM and 646 nM.
In the case of `Cc1nc2c(Cl)cccc2n1-c1cccc(Oc2ccc(S(C)(=O)=O)cc2F)c1` [Example 52, 4-chloro-1-{3-[2-fluoro-4-(methylsulfonyl)phenoxy]phenyl}-2-methyl-1H-benzimidazole], the IC50 in assay [1] is 357 nM; in assay [2], 3000 nM.
For `Cc1nc2c(Cl)cccc2n1-c1cccc(Oc2cccc(S(=O)(=O)CCC(C)C)c2)c1` [Example 53] the same measures were 20 nM and 258 nM.
For `CCCS(=O)(=O)c1cccc(Oc2ccc(Cl)c(-n3c(C)nc4c(Cl)cccc43)c2)c1` [Example 56, 4-chloro-1-{2-chloro-5-[3-(propylsulfonyl)phenoxy]phenyl}-2-methyl-1H-benzimidazole] the same measures were 164 nM and 2500 nM.
In the same order, the values of `CCS(=O)(=O)c1cc(F)cc(Oc2ccc(Cl)c(-n3c(C)nc4c(Cl)cccc43)c2)c1` [Example 59, 4-chloro-1-{2-chloro-5-[3-(ethylsulfonyl)-5-fluorophenoxy]phenyl}-2-methyl-1H-benzimidazole] are 432 nM and 2000 nM.
Take `Cc1nc2c(Cl)cccc2n1-c1cc(Oc2ccc(S(C)(=O)=O)cc2)ccc1Cl` [Example 61, 4-chloro-1-{2-chloro-5-[4-(methylsulfonyl)phenoxy]phenyl}-2-methyl-1H-benzimidazole]: the values for the IC50 in assay [1] and in assay [2] were 357 nM and 3000 nM, respectively.
For `CCS(=O)(=O)c1ccc(Oc2ccc(Cl)c(-n3c(C)nc4c(Cl)cccc43)c2)cc1` [Example 62, 4-chloro-1-{2-chloro-5-[4-(ethylsulfonyl)phenoxy]phenyl}-2-methyl-1H-benzimidazole] the same measures were 65 nM and 812 nM.
For `Cc1nc2c(Cl)cccc2n1-c1cc(Oc2ccccc2S(C)(=O)=O)ccc1Cl` [Example 63, 4-chloro-1-{2-chloro-5-[2-(methylsulfonyl)phenoxy]phenyl}-2-methyl-1H-benzimidazole] the same measures were 309 nM and 2500 nM.
For `Cc1nc2c(C(F)(F)F)cccc2n1-c1ccc(Oc2cccc(S(C)(=O)=O)c2)cc1` [Example 64, 2-methyl-1-{4-[3-(methylsulfonyl)phenoxy]phenyl}-4-(trifluoromethyl)-1H-benzimidazole] the same measures were 1.7 nM and 8.4 nM.
`CCc1nc2c(C(F)(F)F)cccc2n1-c1ccc(Oc2cccc(S(=O)(=O)CC)c2)cc1` [Example 68, 2-ethyl-1-{4-[3-(ethylsulfonyl)phenoxy]phenyl}-4-(trifluoromethyl)-1H-benzimidazole]: the half-maximal inhibitory concentration (IC50) in assay [1] was 1230 nM; in assay [2], > 1000 nM.
In the same order, the values of `CS(=O)(=O)c1cccc(Oc2ccc(-n3c(C(F)(F)F)nc4c(C(F)(F)F)cccc43)cc2)c1` [Example 70, 1-{4-[3-(methylsulfonyl)phenoxy]phenyl}-2,4-bis(trifluoromethyl)-1H-benzimidazole] are 278 nM and 4500 nM.
In the same order, the values of `CS(=O)(=O)c1cc(F)cc(Oc2ccc(-n3c(C(F)(F)F)nc4c(C(F)(F)F)cccc43)cc2)c1` [Example 72, 1-{4-[3-fluoro-5-(methylsulfonyl)phenoxy]phenyl}-2,4-bis(trifluoromethyl)-1H-benzimidazole] are 512 nM and 4700 nM.
In the same order, the values of `CCS(=O)(=O)c1cccc(Oc2cccc(-n3c(C(F)(F)F)nc4c(C(F)(F)F)cccc43)c2)c1` [Example 77, 1-{3-[3-(ethylsulfonyl)phenoxy]phenyl}-2,4-bis(trifluoromethyl)-1H-benzimidazole] are 198 nM and 2500 nM.
As for `CC(C)S(=O)(=O)c1cccc(Oc2cccc(-n3c(C(F)(F)F)nc4c(C(F)(F)F)cccc43)c2)c1` [Example 78, 1-{3-[3-(isopropylsulfonyl)phenoxy]phenyl}-2,4-bis(trifluoromethyl)-1H-benzimidazole], the values for the 50% inhibitory concentration (IC50) in assay [1] and in assay [2] were 92 nM and 1370 nM, respectively.
In the case of `CS(=O)(=O)c1cccc(COc2ccc(Cl)c(-n3cnc4c(C(F)(F)F)cccc43)c2)c1` [Example 84, 1-(2-chloro-5-{[3-(methylsulfonyl)benzyl]oxy}phenyl)-4-(trifluoromethyl)-1H-benzimidazole], the results for the IC50 in assay [1] and in assay [2] were 110 nM and 1500 nM, respectively.

The record behind these values is patent US20110034526A1, “Benzimidazole Compounds” (Wyeth LLC, priority 2007, published 2011).
